Results published in US20250002507A1, “7,8-DIHYDRO-5H-1,6-NAPHTHYRIDINE DERIVATIVES AS POSITIVE ALLOSTERIC MODULATORS OF THE MUSCARINIC ACETYLCHOLINE RECEPTOR M4 FOR TREATING NEUROLOGICAL AND PSYCHIATRIC DISORDERS” (Vanderbilt University, priority 2021, published 2025).

Target: T1, Human M4 (Homo sapiens, UniProt P08173)
T1 construct: expressed in transfected cells
T1 sequence (P08173 1-479): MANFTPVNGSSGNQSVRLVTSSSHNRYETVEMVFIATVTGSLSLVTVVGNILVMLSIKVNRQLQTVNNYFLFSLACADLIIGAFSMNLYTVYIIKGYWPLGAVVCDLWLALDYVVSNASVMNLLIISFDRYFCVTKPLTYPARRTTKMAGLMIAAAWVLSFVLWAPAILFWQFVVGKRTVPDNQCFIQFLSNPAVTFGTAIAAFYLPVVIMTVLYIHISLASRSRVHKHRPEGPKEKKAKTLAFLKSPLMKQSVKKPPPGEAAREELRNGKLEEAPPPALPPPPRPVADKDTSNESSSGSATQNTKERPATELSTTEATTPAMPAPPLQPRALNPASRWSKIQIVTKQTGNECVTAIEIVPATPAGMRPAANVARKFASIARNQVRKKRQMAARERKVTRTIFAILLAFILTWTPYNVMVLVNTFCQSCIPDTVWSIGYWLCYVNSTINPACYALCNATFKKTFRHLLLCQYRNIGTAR
Assay: mAChR M4 cell-based functional assay (calcium flux, potentiation of EC20 acetylcholine response), hM4-Gqi5 CHO-K1 cells
Conditions: for Emax at 30 µM: CHO-K1, % ACh maximum at 30 μM, human M4, read-out: Emax; for EC50: hM4-Gqi5 CHO-K1 cells, calcium flux, PAM of EC20 acetylcholine, read-out: Human M4 EC50
In short: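 CHO-K1 cells stably expressing human M4 with chimeric Gqi5, loaded with Fluo-4 AM 50 min at 37 °C; calcium flux read by FDSS. 11-point 1:3 compound curves added, then EC20 acetylcholine at 144 s; potentiation of the EC20 response fitted by four-parameter logistic to give EC50 and Emax.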

Row | Compound | Emax at 30 µM [%] | EC50 [nM]
1 | Cc1c(N2CCc3ncc(-c4cnn(CC5CC5)c4)cc3C2)nn2c(C(F)(F)F)nnc2c1C [Compound 95, 3-[1-(cyclopropylmethyl)pyrazol-4-yl]-6-[7,8-dimethyl-3-(trifluoromethyl)-[1,2,4]triazolo[4,3-b]pyridazin-6-yl]-7,8-dihydro-5H-1,6-naphthyridine] | 90 | 496
2 | Cc1c(N2CCc3ncc(-c4cncs4)cc3C2)nn2c(C(F)(F)F)nnc2c1C [Compound 96, 5-[6-[7,8-dimethyl-3-(trifluoromethyl)-[1,2,4]triazolo[4,3-b]pyridazin-6-yl]-7,8-dihydro-5H-1,6-naphthyridin-3-yl]thiazole] | 97 | 106
3 | Cc1c(N2CCc3ncc(-c4cnn(C5CCCC5)c4)cc3C2)nn2cnnc2c1C [Compound 97, 3-(1-cyclopentylpyrazol-4-yl)-6-(7,8-dimethyl-[1,2,4]triazolo[4,3-b]pyridazin-6-yl)-7,8-dihydro-5H-1,6-naphthyridine] | 87 | 198
4 | Cc1c(N2CCc3ncc(-c4cnn(CC(F)(F)F)c4)cc3C2)nn2cnnc2c1C [Compound 98, 6-(7,8-dimethyl-[1,2,4]triazolo[4,3-b]pyridazin-6-yl)-3-[1-(2,2,2-trifluoroethyl)pyrazol-4-yl]-7,8-dihydro-5H-1,6-naphthyridine] | 102 | 332
5 | Cc1c(N2CCc3ncc(-c4cnn(C5CCC5)c4)cc3C2)nn2cnnc2c1C [Compound 99, 3-(1-cyclobutylpyrazol-4-yl)-6-(7,8-dimethyl-[1,2,4]triazolo[4,3-b]pyridazin-6-yl)-7,8-dihydro-5H-1,6-naphthyridine] | 95 | 276
6 | CCn1cc(-c2cnc3c(c2)CN(c2nn4cnnc4c(C)c2C)CC3)cn1 [Compound 100, 6-(7,8-dimethyl-[1,2,4]triazolo[4,3-b]pyridazin-6-yl)-3-(1-ethylpyrazol-4-yl)-7,8-dihydro-5H-1,6-naphthyridine] | 101 | 249
7 | Cc1c(N2CCc3ncc(-c4cc[nH]c4)cc3C2)nn2cnnc2c1C [Compound 101, 6-(7,8-dimethyl-[1,2,4]triazolo[4,3-b]pyridazin-6-yl)-3-(1H-pyrrol-3-yl)-7,8-dihydro-5H-1,6-naphthyridine] | 98 | 389
8 | Cc1ccncc1-c1cnc2c(c1)CN(c1nn3cnnc3c(C)c1C)CC2 [Compound 102, 6-(7,8-dimethyl-[1,2,4]triazolo[4,3-b]pyridazin-6-yl)-3-(4-methyl-3-pyridyl)-7,8-dihydro-5H-1,6-naphthyridine] | 94 | 105
9 | Cc1cc2nncn2nc1N1CCc2ncc(-c3cncs3)cc2C1 [Compound 103, 5-[6-(7-methyl-[1,2,4]triazolo[4,3-b]pyridazin-6-yl)-7,8-dihydro-5H-1,6-naphthyridin-3-yl]thiazole] | 97 | 232
10 | Cc1cc2nncn2nc1N1CCc2ncc(-c3c(C)nn(C)c3C)cc2C1 [Compound 104, 6-(7-methyl-[1,2,4]triazolo[4,3-b]pyridazin-6-yl)-3-(1,3,5-trimethylpyrazol-4-yl)-7,8-dihydro-5H-1,6-naphthyridine] | 91 | 398
11 | Cc1cc2nncn2nc1N1CCc2ncc(-c3c(C)noc3C)cc2C1 [Compound 105, 3,5-dimethyl-4-[6-(7-methyl-[1,2,4]triazolo[4,3-b]pyridazin-6-yl)-7,8-dihydro-5H-1,6-naphthyridin-3-yl]isoxazole] | 86 | 325
12 | Cc1cc2nncn2nc1N1CCc2ncc(-c3cnn(C4CCCCC4)c3)cc2C1 [Compound 106, 3-(1-cyclohexylpyrazol-4-yl)-6-(7-methyl-[1,2,4]triazolo[4,3-b]pyridazin-6-yl)-7,8-dihydro-5H-1,6-naphthyridine] | 59 | 234
13 | Cc1cc2nccn2nc1N1CCc2ncc(-c3cncs3)cc2C1 [Compound 107, 5-[6-(7-methylimidazo[1,2-b]pyridazin-6-yl)-7,8-dihydro-5H-1,6-naphthyridin-3-yl]thiazole] | 80 | 113
14 | Cc1cc2nccn2nc1N1CCc2ncc(-c3cn(C)nc3C)cc2C1 [Compound 108, 3-(1,3-dimethylpyrazol-4-yl)-6-(7-methylimidazo[1,2-b]pyridazin-6-yl)-7,8-dihydro-5H-1,6-naphthyridine] | 85 | 399
15 | Cc1cc2nccn2nc1N1CCc2ncc(-c3c(C)nn(C)c3C)cc2C1 [Compound 109, 6-(7-methylimidazo[1,2-b]pyridazin-6-yl)-3-(1,3,5-trimethylpyrazol-4-yl)-7,8-dihydro-5H-1,6-naphthyridine] | 81 | 450
16 | Cc1cc2nccn2nc1N1CCc2ncc(-c3c(C)noc3C)cc2C1 [Compound 110, 3,5-dimethyl-4-[6-(7-methylimidazo[1,2-b]pyridazin-6-yl)-7,8-dihydro-5H-1,6-naphthyridin-3-yl]isoxazole] | 62 | 236
17 | Cc1cc2nccn2nc1N1CCc2ncc(-c3ccn(C)n3)cc2C1 [Compound 111, 6-(7-methylimidazo[1,2-b]pyridazin-6-yl)-3-(1-methylpyrazol-3-yl)-7,8-dihydro-5H-1,6-naphthyridine] | 69 | 1180
18 | Cc1c(N2CCc3ncc(-c4cnn(C)c4)cc3C2)nn2cnnc2c1C [Compound 112, 6-(7,8-dimethyl-[1,2,4]triazolo[4,3-b]pyridazin-6-yl)-3-(1-methylpyrazol-4-yl)-7,8-dihydro-5H-1,6-naphthyridine] | 101 | 124
19 | Cc1cc2nncn2nc1N1CCc2ncc(-c3cn(C)nc3C)cc2C1 [Compound 113, 3-(1,3-dimethylpyrazol-4-yl)-6-(7-methyl-[1,2,4]triazolo[4,3-b]pyridazin-6-yl)-7,8-dihydro-5H-1,6-naphthyridine] | 97 | 330
20 | Cc1cc2nncn2nc1N1CCc2ncc(-c3ccn(C)n3)cc2C1 [Compound 114, 3-(1-methylpyrazol-3-yl)-6-(7-methyl-[1,2,4]triazolo[4,3-b]pyridazin-6-yl)-7,8-dihydro-5H-1,6-naphthyridine] | 88 | 707
21 | Cc1c(N2CCc3ncc(C(=O)NCc4ccc(C(C)(C)O)cc4)cc3C2)nn2cnnc2c1C [Compound 115, 6-(7,8-dimethyl-[1,2,4]triazolo[4,3-b]pyridazin-6-yl)-N-[[4-(1-hydroxy-1-methyl-ethyl)phenyl]methyl]-7,8-dihydro-5H-1,6-naphthyridine-3-carboxamide] | 73 | 4180
22 | Cc1c(N2CCc3ncc(C(=O)NCC4CCCOC4)cc3C2)nn2cnnc2c1C (stereo not drawn) [Compound 116, 6-(7,8-dimethyl-[1,2,4]triazolo[4,3-b]pyridazin-6-yl)-N-(tetrahydropyran-3-ylmethyl)-7,8-dihydro-5H-1,6-naphthyridine-3-carboxamide] | 75 | 
23 | Cc1c(N2CCc3ncc(C(=O)N4CC(F)C4)cc3C2)nn2cnnc2c1C [Compound 117, [6-(7,8-dimethyl-[1,2,4]triazolo[4,3-b]pyridazin-6-yl)-7,8-dihydro-5H-1,6-naphthyridin-3-yl]-(3-fluoroazetidin-1-yl)methanone] | 67 | 
24 | Cc1c(N2CCc3ncc(C(=O)NCc4cncs4)cc3C2)nn2cnnc2c1C [Compound 118, 6-(7,8-Dimethyl-[1,2,4]triazolo[4,3-b]pyridazin-6-yl)-N-(thiazol-5-ylmethyl)-7,8-dihydro-5H-1,6-naphthyridine-3-carboxamide] | 99 | 707
25 | Cc1c(N2CCc3ncc(C(=O)N4CCC(O)CC4C)cc3C2)nn2cnnc2c1C (stereo not drawn) [Compound 119, [6-(7,8-dimethyl-[1,2,4]triazolo[4,3-b]pyridazin-6-yl)-7,8-dihydro-5H-1,6-naphthyridin-3-yl]-(4-hydroxy-2-methyl-1-piperidyl)methanone] | 73 | 
26 | Cc1c(N2CCc3ncc(C(=O)NCC4COC4)cc3C2)nn2cnnc2c1C [Compound 120, 6-(7,8-dimethyl-[1,2,4]triazolo[4,3-b]pyridazin-6-yl)-N-(oxetan-3-ylmethyl)-7,8-dihydro-5H-1,6-naphthyridine-3-carboxamide] | 76 | 
27 | Cc1c(N2CCc3ncc(C(=O)NCc4cccs4)cc3C2)nn2cnnc2c1C [Compound 121, 6-(7,8-dimethyl-[1,2,4]triazolo[4,3-b]pyridazin-6-yl)-N-(2-thienylmethyl)-7,8-dihydro-5H-1,6-naphthyridine-3-carboxamide] | 100 | 881
28 | Cc1c(N2CCc3ncc(C(=O)N4CCN(C5CC5)CC4)cc3C2)nn2cnnc2c1C [Compound 122, (4-cyclopropylpiperazin-1-yl)-[6-(7,8-dimethyl-[1,2,4]triazolo[4,3-b]pyridazin-6-yl)-7,8-dihydro-5H-1,6-naphthyridin-3-yl]methanone] | 51 | 
